Here are results for 23 compounds from patent US20230339970A1, “CASEIN KINASE 1 DELTA MODULATORS” (priority 2020, published 2023).

The term pIC50 denotes −log10 of the IC50, conventionally taken in molar units.

pIC50: −log10 of the molar value.

Test [1] has as its target T1, human recombinant GST cleaved CSNK1D (Homo sapiens, UniProt P48730).
T1 construct: GST (cleaved yes); purchased University of Dundee clone DU 19064
The test can be described thus: Purified Enzyme Assay (ADP-Glo CSNK1D Kinase Assay). In kind it is biochemical. Conditions: 2 nM CSNK1D; peptide substrate 150 μM; ATP 20 μM; 45 minutes at room temperature. Summed up:
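GST-cleaved human recombinant CSNK1D phosphorylates peptide PLSRTL-pS-VASLPGL with ATP; compounds added in dose-response, 45 min at room temperature. ADP formed measured by ADP-Glo luminescence and converted to percent activity.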

The target in a further test is T2, human CSNK1D (Homo sapiens, UniProt P48730).
T2 construct: expressed in transfected cells
Put plainly: Whole Cell nBRET CSNK1D Binding Assay. The note with it: living CHO cells stably expressing human CSNK1D tagged with nanoluciferase; NanoBret tracer 130 nM; 2 hours at 37 C.

T1 sequence (P48730 whole entry): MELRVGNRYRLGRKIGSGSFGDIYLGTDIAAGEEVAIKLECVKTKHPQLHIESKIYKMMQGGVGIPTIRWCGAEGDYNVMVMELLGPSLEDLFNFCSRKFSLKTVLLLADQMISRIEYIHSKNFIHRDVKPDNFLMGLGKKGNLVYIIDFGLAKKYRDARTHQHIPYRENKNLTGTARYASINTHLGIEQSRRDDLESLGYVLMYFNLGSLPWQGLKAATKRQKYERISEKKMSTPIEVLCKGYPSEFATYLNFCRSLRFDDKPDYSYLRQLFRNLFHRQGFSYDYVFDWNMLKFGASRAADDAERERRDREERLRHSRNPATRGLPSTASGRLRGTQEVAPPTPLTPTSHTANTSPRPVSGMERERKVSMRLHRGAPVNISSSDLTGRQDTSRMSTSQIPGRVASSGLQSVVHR
T2 sequence (P48730 whole entry): as above

Regarding `CC1(CC2COC2)CCc2c(-c3ccnc4[nH]ncc34)c(-c3ccc(F)cn3)nn2C1` (single isomer, unassigned) [Example 320, (*R)-4-(2-(5-Fluoropyridin-2-yl)-6-methyl-6-(oxetan-3-ylmethyl)-4,5,6,7-tetrahydropyrazolo[1,5-a]pyridin-3-yl)-1H-pyrazolo[3,4-b]pyridine], the negative-log IC50 (pIC50) is 7.85 in test [1] and 6.98 on human CSNK1D.

Take `Cc1nc(-c2c(-c3ccc(F)cn3)nn3c2CC[C@H]2[C@@H]3C2(F)F)c2cn[nH]c2n1` (single isomer, unassigned) [Example 361, (5a*S,6a*R)-6,6-Difluoro-2-(5-fluoropyridin-2-yl)-3-(6-methyl-1H-pyrazolo[3,4-d]pyrimidin-4-yl)-5,5a,6,6a-tetrahydro-4H-cyclopropa[e]pyrazolo[1,5-a]pyridine]: the negative-log IC50 (pIC50) in test [1] is 6.30; at human CSNK1D it was 6.46.

Consider `Fc1ccc(-c2nn3c(c2-c2ccnc4[nH]ncc24)CCCC3)nc1` [Example 35, 4-[2-(5-Fluoro-2-pyridyl)-4,5,6,7-tetrahydropyrazolo[1,5-a]pyridin-3-yl]-1H-pyrazolo[3,4-b]pyridine], for which the pIC50 is 7.96 in test [1] and 6.43 at human CSNK1D.

Take `Cc1cc(-c2c(-c3ccc(F)cn3)nn3c2C[C@@]2(C3)CC2(F)F)c2cn[nH]c2n1` (single isomer, unassigned) [Example 260, (*S)-1′,1′-Difluoro-2-(5-fluoro-2-pyridyl)-3-(6-methyl-1H-pyrazolo[3,4-b]pyridin-4-yl)spiro[4,6-dihydropyrrolo[1,2-b]pyrazole-5,2′-cyclopropane]]: the figures for the pIC50 (in test [1]; on human CSNK1D) were 8.52 and 6.97, respectively.

For the compound `CC1(C)Cn2nc(-c3ccc(F)cn3)c(-c3ccnc4cn[nH]c34)c2CO1` [Example 139, 2-(5-Fluoropyridin-2-yl)-6,6-dimethyl-3-(1H-pyrazolo[4,3-b]pyridin-7-yl)-6,7-dihydro-4H-pyrazolo[5,1-c][1,4]oxazine], the negative-log IC50 (pIC50) was 6.35 in test [1] and below 5.00 at human CSNK1D.

For `Fc1ccc(-c2nn3c(c2-c2c(F)cnc4[nH]ncc24)CC[C@@]2(C3)CC2(F)F)nc1` (single isomer, unassigned) [Example 329, (*S)-2,2-Difluoro-3′-(5-fluoro-1H-pyrazolo[3,4-b]pyridin-4-yl)-2′-(5-fluoropyridin-2-yl)-4′,5′-dihydro-7′H-spiro[cyclopropane-1,6′-pyrazolo[1,5-a]pyridine]], the results for the negative logarithm of the IC50 (pIC50) (in test [1]; at human CSNK1D) were 7.64 and 6.79, respectively.

`Cc1cc(-c2c(-c3ccc(F)cc3)nn3c2OCC2(COC2)C3)c2cn[nH]c2n1` [Example 211, 2′-(4-Fluorophenyl)-3′-(6-methyl-1H-pyrazolo[3,4-b]pyridin-4-yl)-5′H,7′H-spiro[oxetane-3,6′-pyrazolo[5,1-b][1,3]oxazine]]: the pIC50 in test [1] is 9.00; on human CSNK1D, 8.22.

For `Fc1ccc(-c2nn3c(c2-c2ccnc4[nH]ncc24)OCCC3)cc1` [Example 184, 2-(4-Fluorophenyl)-3-(1H-pyrazolo[3,4-b]pyridin-4-yl)-6,7-dihydro-5H-pyrazolo[5,1-b][1,3]oxazine], the negative logarithm of the IC50 (pIC50) in test [1] was 8.70; on human CSNK1D it was 7.82.

Take `CC1(CF)CCc2c(-c3ccnc(N)c3)c(-c3ccc(F)cn3)nn2C1` (single isomer, unassigned) [Example 287, (*R)-4-[6-(Fluoromethyl)-2-(5-fluoro-2-pyridyl)-6-methyl-5,7-dihydro-4H-pyrazolo[1,5-a]pyridin-3-yl]pyridin-2-amine]: the negative-log IC50 (pIC50) in test [1] was 8.30; at human CSNK1D it was 7.17.

For `Fc1ccc(-c2nn3c(c2-c2ccn4nccc4c2)CC[C@H]2[C@@H]3C2(F)F)cc1` (stereo in doubt) [Example 353, (5a*S,6a*R)-6,6-Difluoro-2-(4-fluorophenyl)-3-(pyrazolo[1,5-a]pyridin-4-yl)-5,5a,6,6a-tetrahydro-4H-cyclopropa[e]pyrazolo[1,5-a]pyridine], the negative-log IC50 (pIC50) in test [1] is 5.95; on human CSNK1D, 5.42.

`Cc1nc2[nH]nc(C)c2c(-c2c(-c3ccc(F)cn3)nn3c2CC[C@H]2[C@@H]3C2(F)F)c1F` (single isomer, unassigned) [Example 360, (5a*S,6a*R)-6,6-Difluoro-3-(5-fluoro-3,6-dimethyl-1H-pyrazolo[3,4-b]pyridin-4-yl)-2-(5-fluoropyridin-2-yl)-5,5a,6,6a-tetrahydro-4H-cyclopropa[e]pyrazolo[1,5-a]pyridine]: the pIC50 in test [1] was 8.15; at human CSNK1D it was 7.15.

For the compound `CC1(C)Cc2c(-c3c(F)cnc4[nH]ncc34)c(-c3ccc(F)cn3)nn2C1` [Example 236, 5-Fluoro-4-[2-(5-fluoro-2-pyridyl)-5,5-dimethyl-4,6-dihydropyrrolo[1,2-b]pyrazol-3-yl]-1H-pyrazolo[3,4-b]pyridine], the results for the pIC50 (in test [1]; at human CSNK1D) were 8.52 and 7.68, respectively.

In the case of `Cc1cc(-c2c(-c3ccc(F)c(C)n3)nn3c2COC(C)(C)C3)c2c(C)n[nH]c2n1` [Example 393, 3-(3,6-Dimethyl-1H-pyrazolo[3,4-b]pyridin-4-yl)-2-(5-fluoro-6-methylpyridin-2-yl)-6,6-dimethyl-6,7-dihydro-4H-pyrazolo[5,1-c][1,4]oxazine], the values for the negative logarithm of the IC50 (pIC50) (in test [1]; on human CSNK1D) were 7.31 and 5.56, respectively.

For the compound `CC1(C(F)(F)F)Cn2nc(-c3ccc(F)cc3)c(-c3ccn4nccc4c3)c2CO1` (single isomer, unassigned) [Example 413, (*S)-2-(4-Fluorophenyl)-6-methyl-3-(pyrazolo[1,5-a]pyridin-5-yl)-6-(trifluoromethyl)-6,7-dihydro-4H-pyrazolo[5,1-c][1,4]oxazine], the pIC50 in test [1] is 7.57; at human CSNK1D, 7.12.

Turning to `CC(=O)Nc1cc(-c2c(-c3ccc(F)cn3)nn3c2CC[C@H]2C[C@H]23)ccn1` (stereo in doubt) [Example 342, N-(4-((5a*S,6a*R)-2-(5-Fluoropyridin-2-yl)-5,5a,6,6a-tetrahydro-4H-cyclopropa[e]pyrazolo[1,5-a]pyridin-3-yl)pyridin-2-yl)acetamide], the figures for the pIC50 (in test [1]; on human CSNK1D) were 7.70 and 6.34, respectively.

With `Fc1ccc(-c2nn3c(c2-c2ccnc4[nH]ncc24)CC2(C3)CC2(F)F)nc1` (single isomer, unassigned) [Example 255, (*R)-1′.1′-Difluoro-2-(5-fluoro-2-pyridyl)-3-(1H-pyrazolo[3,4-b]pyridin-4-yl)spiro[4,6-dihydropyrrolo[1,2-b]pyrazole-5,2′-cyclopropane]], the figures for the pIC50 (in test [1]; at human CSNK1D) were 7.18 and 5.71, respectively.

On to `CC1(C)Cc2c(-c3ccnc4[nH]nc(Cl)c34)c(-c3ccc(F)cn3)nn2C1` [Example 237, 3-Chloro-4-(2-(5-fluoropyridin-2-yl)-5,5-dimethyl-5,6-dihydro-4H-pyrrolo[1,2-b]pyrazol-3-yl)-1H-pyrazolo[3,4-b]pyridine], for which the values for the negative-log IC50 (pIC50) (in test [1]; on human CSNK1D) were 8.40 and 7.89, respectively.

On to `Cc1nc(-c2c(-c3ccc(F)cn3)nn3c2CC[C@@H]2C[C@@H]23)c2cn[nH]c2n1` (relative stereo) [Example 347, (5a*R,6a*S)-2-(5-fluoropyridin-2-yl)-3-(6-methyl-1H-pyrazolo[3,4-d]pyrimidin-4-yl)-5,5a,6,6a-tetrahydro-4H-cyclopropa[e]pyrazolo[1,5-a]pyridine], for which the negative-log IC50 (pIC50) in test [1] was 7.46; on human CSNK1D, 6.24.

For `COCC1(F)CCc2c(-c3c(F)c(C)nc4[nH]ncc34)c(-c3ccc(F)cn3)nn2C1` (single isomer, unassigned) [Example 308, (*S)-5-Fluoro-4-[6-fluoro-2-(5-fluoro-2-pyridyl)-6-(methoxymethyl)-5,7-dihydro-4H-pyrazolo[1,5-a]pyridin-3-yl]-6-methyl-1H-pyrazolo[3,4-b]pyridine], the pIC50 in test [1] was 8.22; on human CSNK1D, 7.47.

For the compound `Cc1nc2[nH]ncc2c(-c2c(-c3ccc(F)cn3)nn3c2CO[C@@](C)(C(F)(F)F)C3)c1F` (single isomer, unassigned) [Example 420, (*R)-3-(5-Fluoro-6-methyl-1H-pyrazolo[3,4-b]pyridin-4-yl)-2-(5-fluoropyridin-2-yl)-6-methyl-6-(trifluoromethyl)-6,7-dihydro-4H-pyrazolo[5,1-c][1,4]oxazine], the negative-log IC50 (pIC50) was 8.52 in test [1] and 7.62 on human CSNK1D.

For `Cc1nc2[nH]ncc2c(-c2c(-c3ccc(F)cn3)nn3c2CC(C)(C)C3)c1F` [Example 240, 5-Fluoro-4-[2-(5-fluoro-2-pyridyl)-5,5-dimethyl-4,6-dihydropyrrolo[1,2-b]pyrazol-3-yl]-6-methyl-1H-pyrazolo[3,4-b]pyridine], the values for the pIC50 (in test [1]; at human CSNK1D) were 8.70 and 7.72, respectively.

As to `CC1(C(F)(F)F)Cn2nc(-c3ccc(F)cc3)c(-c3ccnc4[nH]ncc34)c2CO1` (single isomer, unassigned) [Example 416, (*R)-2-(4-Fluorophenyl)-6-methyl-3-(1H-pyrazolo[3,4-b]pyridin-4-yl)-6-(trifluoromethyl)-6,7-dihydro-4H-pyrazolo[5,1-c][1,4]oxazine], the pIC50 in test [1] is 7.77; at human CSNK1D, 6.93.

For the compound `Fc1ccc(-c2nn3c(c2-c2c(F)cnc4[nH]ncc24)COC2(C3)CC2(F)F)nc1` (single isomer, unassigned) [Example 436, (*S)-1′1l′-Difluoro-3-(5-fluoro-1H-pyrazolo[3,4-b]pyridin-4-yl)-2-(5-fluoro-2-pyridyl)spiro[4,7-dihydropyrazolo[5,1-c][1,4]oxazine-6,2′-cyclopropane]], the pIC50 is 6.81 in test [1] and 5.40 on human CSNK1D.
